Experimental data from patent US20210205415A1 (Longevity Biotech, Inc., priority 2010, published 2021).
No end group written: not given here.

Legend:
VIPR2 = biological target: T1, VIPR2 (Homo sapiens, UniProt P41587); test: cAMP Hunter cell line agonist mode assay (DiscoveRx HitHunter cAMP XS+); format: cell-based; conditions: for Mean RLU: readout cAMP, cell line VIPR2
T1 sequence (P41587 24-438): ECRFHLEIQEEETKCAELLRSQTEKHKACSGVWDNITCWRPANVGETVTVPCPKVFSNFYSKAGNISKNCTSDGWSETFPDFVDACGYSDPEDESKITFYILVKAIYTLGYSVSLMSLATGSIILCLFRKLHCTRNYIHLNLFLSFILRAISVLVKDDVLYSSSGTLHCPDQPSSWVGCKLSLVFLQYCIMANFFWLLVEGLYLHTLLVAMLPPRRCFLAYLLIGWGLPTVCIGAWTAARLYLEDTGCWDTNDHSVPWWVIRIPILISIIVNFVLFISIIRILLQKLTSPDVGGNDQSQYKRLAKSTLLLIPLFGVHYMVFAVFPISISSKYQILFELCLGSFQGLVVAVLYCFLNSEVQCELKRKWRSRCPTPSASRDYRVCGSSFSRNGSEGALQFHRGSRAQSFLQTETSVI
Experimental: (§1) Once it was established that the cells were healthy and growing normally, cells were passaged from flasks using cell dissociation reagent buffer and seeded into white walled clear bottom 384-well microplates for compound profiling. For profiling, cells were seeded at a density of 10,000 cells per well in a total volume of 20 μL and were allowed to adhere and recover overnight prior to compound addition. cAMP modulation was determined using the DiscoveRx HitHunter cAMP XS+ assay.
(§2) For profiling compound in agonist mode, the cells were incubated in the presence of compound at 37° C. for 30 minutes. […] After appropriate compound incubation, assay signal was generated through incubation with DiscoverX lysis cocktail according to the manufacturers standard protocol. Dose curves were plotted using GraphPad Prism or Activity Base. Percentage activity is calculated using the following formula:
(§3) % Activity=100% ×(mean RLU of test sample−mean RLU of vehicle control)/(mean RLU of MAX control−mean RLU of vehicle control).

VIPR1 = biological target: T2, VIPR1 (Homo sapiens, UniProt P32241); test: as above; format: cell-based; conditions: for Mean RLU: readout cAMP, cell line VIPR1
T2 sequence (P32241 31-457): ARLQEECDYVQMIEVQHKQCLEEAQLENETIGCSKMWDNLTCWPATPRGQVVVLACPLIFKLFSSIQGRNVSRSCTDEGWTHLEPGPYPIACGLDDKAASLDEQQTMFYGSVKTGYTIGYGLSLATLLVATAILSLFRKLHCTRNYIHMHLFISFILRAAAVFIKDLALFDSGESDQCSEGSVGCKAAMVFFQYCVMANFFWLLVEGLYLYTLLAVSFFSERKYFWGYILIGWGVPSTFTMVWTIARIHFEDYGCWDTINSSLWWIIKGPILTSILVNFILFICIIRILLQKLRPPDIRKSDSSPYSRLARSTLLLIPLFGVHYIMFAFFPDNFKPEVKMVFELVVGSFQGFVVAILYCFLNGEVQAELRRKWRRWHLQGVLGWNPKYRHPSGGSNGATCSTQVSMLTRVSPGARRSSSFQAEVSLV
Experimental: as §1, §2, §3

[1] = test system: calcitonin-gene related peptide (CGRP) and adrenomedullin receptors; conditions: cited from earlier work
calcitonin (CT) receptor = conditions: cited from earlier work
[2] = humans; cited from earlier work
VPAC1 receptor = biological target: T3, VPAC1 receptor (Homo sapiens, UniProt P32241); conditions: cited from earlier work
T3 sequence (P32241 31-457): T2 sequence (P32241 31-457)

VPAC2 receptors = biological target: T4, VPAC2 receptors (Homo sapiens, UniProt P41587); conditions: read-out: IC50 for VPAC2 receptor; cited from earlier work
T4 sequence (P41587 24-438): T1 sequence (P41587 24-438)

Glucagon receptor = biological target: T5, Glucagon receptor (Rattus norvegicus, UniProt P30082); conditions: rat liver membranes; cited from earlier work
T5 construct: from tissue; host or cells: rat liver membranes (value quoted from the literature)
T5 sequence (P30082 27-485): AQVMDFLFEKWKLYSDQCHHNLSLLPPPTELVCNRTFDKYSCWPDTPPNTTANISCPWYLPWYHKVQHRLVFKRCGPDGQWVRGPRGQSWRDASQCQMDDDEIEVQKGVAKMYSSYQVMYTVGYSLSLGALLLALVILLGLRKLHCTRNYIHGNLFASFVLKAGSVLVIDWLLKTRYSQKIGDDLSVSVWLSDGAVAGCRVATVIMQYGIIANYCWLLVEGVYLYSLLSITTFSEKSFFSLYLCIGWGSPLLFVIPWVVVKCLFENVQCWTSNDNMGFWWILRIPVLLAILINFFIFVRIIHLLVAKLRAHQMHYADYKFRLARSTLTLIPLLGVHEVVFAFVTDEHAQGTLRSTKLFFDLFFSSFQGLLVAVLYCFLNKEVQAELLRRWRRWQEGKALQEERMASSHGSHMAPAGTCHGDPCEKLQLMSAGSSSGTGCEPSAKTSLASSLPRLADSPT

mouse CRF2β = mouse CRF2β (Mus musculus, UniProt Q60748); conditions: read-out: Kd for binding to mouse CRF2β; cited from earlier work
Chain of mouse CRF2β (Q60748 1-431 isoform Q60748-2): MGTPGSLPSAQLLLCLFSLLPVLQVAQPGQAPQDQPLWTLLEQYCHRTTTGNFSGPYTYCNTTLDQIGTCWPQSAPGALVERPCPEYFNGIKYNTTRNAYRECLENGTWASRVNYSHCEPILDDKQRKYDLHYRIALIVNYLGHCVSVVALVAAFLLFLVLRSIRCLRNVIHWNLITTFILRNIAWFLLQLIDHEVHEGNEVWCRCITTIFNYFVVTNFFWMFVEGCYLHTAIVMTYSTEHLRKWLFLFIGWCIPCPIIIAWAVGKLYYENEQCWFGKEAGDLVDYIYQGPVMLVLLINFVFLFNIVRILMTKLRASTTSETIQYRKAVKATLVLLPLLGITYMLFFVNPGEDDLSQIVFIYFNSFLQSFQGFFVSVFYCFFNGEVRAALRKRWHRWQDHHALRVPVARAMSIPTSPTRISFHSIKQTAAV

rat CRF1 receptors = biological target: T6, rat CRF1 receptors (Rattus norvegicus, UniProt P35353); conditions: read-out: Kd for binding to rat CRF1 receptors; cited from earlier work
T6 sequence (P35353 24-415): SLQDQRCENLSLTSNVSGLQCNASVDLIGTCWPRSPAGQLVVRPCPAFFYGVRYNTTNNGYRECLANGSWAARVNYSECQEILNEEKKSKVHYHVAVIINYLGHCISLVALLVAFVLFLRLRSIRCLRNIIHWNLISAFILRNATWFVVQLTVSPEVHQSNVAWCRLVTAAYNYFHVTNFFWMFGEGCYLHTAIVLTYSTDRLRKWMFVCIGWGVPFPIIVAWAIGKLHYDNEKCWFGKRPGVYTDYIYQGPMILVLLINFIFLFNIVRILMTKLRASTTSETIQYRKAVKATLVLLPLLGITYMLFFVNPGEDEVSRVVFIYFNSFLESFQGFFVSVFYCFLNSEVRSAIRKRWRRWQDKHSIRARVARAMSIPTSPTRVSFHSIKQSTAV

HEK-mCRF2β cells = biological target: T7, HEK-mCRF2β cells (Mus musculus, UniProt Q60748); conditions: cited from earlier work
T7 construct: expressed in transfected cells; host or cells: HEK cells (value quoted from the literature)
T7 sequence (Q60748 1-431 isoform Q60748-2): as the sequence (Q60748 1-431 isoform Q60748-2) above

CRF2α = biological target: T8, CRF2α (Homo sapiens, UniProt Q13324); conditions: cited from earlier work
T8 sequence (Q13324 1-411): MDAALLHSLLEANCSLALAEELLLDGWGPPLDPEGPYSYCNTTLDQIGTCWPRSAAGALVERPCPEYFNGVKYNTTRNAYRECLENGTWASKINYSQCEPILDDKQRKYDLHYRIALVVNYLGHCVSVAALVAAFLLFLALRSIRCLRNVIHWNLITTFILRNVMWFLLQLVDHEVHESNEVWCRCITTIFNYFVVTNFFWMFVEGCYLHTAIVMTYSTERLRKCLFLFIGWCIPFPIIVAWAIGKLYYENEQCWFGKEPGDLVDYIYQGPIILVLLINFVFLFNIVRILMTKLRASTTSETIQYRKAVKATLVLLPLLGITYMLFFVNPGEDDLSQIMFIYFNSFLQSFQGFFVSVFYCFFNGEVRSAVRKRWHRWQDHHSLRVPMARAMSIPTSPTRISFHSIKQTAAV

neurotensin receptors = conditions: rat brain receptors; read-out: IC50 for inhibition of {Trp11}-NT binding; cited from earlier work

CC[C@H](C)[C@H](NC(=O)[C@H]1CCC[C@@H]1NC(=O)[C@H](CC(N)=O)NC(=O)[C@H](CC(C)C)NC(=O)[C@H](Cc1ccc(O)cc1)NC(=O)[C@H]1CNC[C@@H]1NC(=O)[C@H](CCCCN)NC(=O)[C@@H](NC(=O)[C@H]1CCC[C@@H]1NC(=O)[C@H](CC(C)C)NC(=O)[C@H](CCC(N)=O)NC(=O)[C@H](CCCCN)NC(=O)[C@H]1CNC[C@@H]1NC(=O)[C@H](CC(C)C)NC(=O)[C@H](CCCNC(=N)N)NC(=O)[C@H]1CCC[C@@H]1NC(=O)[C@H](Cc1ccc(O)cc1)NC(=O)[C@H](CC(N)=O)NC(=O)[C@H](CC(=O)O)NC(=O)[C@@H](NC(=O)[C@H](Cc1ccccc1)NC(=O)[C@@H](NC(=O)[C@H](C)NC(=O)[C@H](CC(=O)O)NC(=O)[C@H](CO)NC(=O)[C@@H](N)Cc1c[nH]cn1)C(C)C)[C@@H](C)O)C(C)C)C(=O)N[C@H](CC(=O)NC(CC(N)=O)CC(N)=O)CC(C)C [Compound 8, HSDAVFTDNYXRLZKQLXVKZYLNXILN]
interaction with VIPR2 (VIPR2): does not interact substantially with VIPR2 | activation of VIPR2 (VIPR2; FIG. 3): not activate VIPR2 | Mean RLU (VIPR2; [Compound] 1.00E−07 M): 5920.0 RLU | Mean RLU (VIPR2; [Compound] 1.00E−08 M): 9580.0 RLU | Mean RLU (VIPR2; [Compound] 1.00E−09 M): 5960.0 RLU | Mean RLU (VIPR2; [Compound] 1.00E−10 M): 7560.0 RLU | Mean RLU (VIPR2; [Compound] 1.00E−11 M): 9250.0 RLU | Mean RLU (VIPR2; [Compound] 1.00E−12 M): 8960.0 RLU | Mean RLU (VIPR2; [Compound] 5.00E−07 M): 10200.0 RLU | Mean RLU (VIPR2; [Compound] 5.00E−08 M): 9200.0 RLU | Mean RLU (VIPR2; [Compound] 5.00E−09 M): 3560.0 RLU | Mean RLU (VIPR2; [Compound] 5.00E−10 M): 9620.0 RLU | EC50 compared with wild-type VIP (VIPR1; FIG. 3 legend): higher than the EC50 of wild-type VIP protein | Emax (VIPR1; FIG. 3 legend, read-out: activation of VIPR1 relative to maximum activation): ~100% | Mean RLU (VIPR1; [Compound] 1.00E−08 M, agonist mode): 13750.0 RLU | Mean RLU (VIPR1; [Compound] 1.00E−09 M, agonist mode): 18600.0 RLU | Mean RLU (VIPR1; [Compound] 1.00E−10 M, agonist mode): 9060.0 RLU | Mean RLU (VIPR1; [Compound] 1.00E−11 M, agonist mode): 10500.0 RLU | Mean RLU (VIPR1; [Compound] 1.00E−12 M, agonist mode): 10340.0 RLU | Mean RLU (VIPR1; [Compound] 5.00E−09 M, agonist mode): 13250.0 RLU | Mean RLU (VIPR1; [Compound] 5.00E−10 M, agonist mode): 9520.0 RLU | activation of VIPR1 (VIPR1; agonist mode, FIG. 3): fully activate VIPR1

Calcitoninreceptor-stimulating peptide-1 (SCNTATCMTHRLVGLLSRSGSMVRSNLLPTKMGFKVFG-NH2; ends and bridges not checked; UniProt Q862B1 81-118, looked up)
activity at CGRP and adrenomedullin receptors [1]: no activity at calcitonin-gene related peptide (CGRP) and adrenomedullin | ED50, stimulation of cAMP formation (calcitonin (CT) receptor; calcitonin (CT) receptor): 02 nM | potency of cAMP formation relative to CT (calcitonin (CT) receptor; greater than CT): 350 fold

glucagon-like peptide-1 [GLP-1]
plasma half-life [2]: 2 min

{Ala2,8,9,11,19,22,24,25,27,28}-VIP
IC50 (VPAC1 receptor): 115 to 132 nM | IC50 (VPAC2 receptors): > 30000 nM

des-His1-{Glu9}-Glucagon (1-29) amide
pA2 for inhibition of glucagon-induced adenylyl cyclase activation (Glucagon receptor): (Glucagon receptor antagonist (pA2=72 for inhibition of glucagon-induced

Antisauvagine-30
Kd (mouse CRF2β): 14 nM | Kd (rat CRF1 receptors): 1540 nM | pA2, inhibition of sauvagine-stimulated cAMP accumulation (HEK-mCRF2β cells): accumulation in HEK-mCRF2β cells (pA2=849) Prevents stress-

Astressin
Ki (CRF2α): 15 nM

Neuromedin N (rat, mouse, porcine, canine) (KIPYIL; Neuromedin N; UniProt P20068 142-147, looked up)
IC50 (neurotensin receptors): 167 nM
